Source: patent publication US6696458B2 (Super Gen, Inc., priority 2002, dated 2004)

Columns and labels:
[1] = test system: human colon cancer xenografts; conditions: cited from earlier work
[2] = solubilized by sodium hydroxide in water; cited from earlier work
[3] = Dehydration/desolvation under vacuum, XRPD comparison; type: physicochemical
Description: The characterization of this weight loss as THF solvent is supported by the ^1H NMR data.

[4] = Moisture sorption/desorption on VTI SGA-100 moisture balance; type: physicochemical; conditions: for hygroscopicity: judged from sorption 5 to 95% RH
Description: The samples were not dried prior to analysis.

[5] = Storage in closed vial at ambient conditions, XRPD comparison; type: physicochemical; conditions: 31 days

Question: For CC[C@@]1(O)C(=O)OCc2c1cc1n(c2=O)Cc2cc3cc4c(cc3nc2-1)OCO4 [10,11, MD, 10,11-methylendioxy-20(S)-camptothecin], which anticancer activity [1] is on record?
Answer: high anticancer activity

Question: With CC[C@@](O)(C(=O)[O-])c1cc2n(c(=O)c1CO)Cc1cc3ccccc3nc1-2.[Na+] [Sodium camptothecin] as the compound, how does the “antineoplastic activity in clinical trials” value [2] read?
Answer: antineoplastic activity

Question: For CC[C@@]1(O)C(=O)OCc2c1cc1n(c2=O)Cc2cc3c([N+](=O)[O-])cccc3nc2-1 [Form C, 9-nitrocamptothecin], which “form change on attempted desolvation” value [3] is on record?
Answer: becomes amorphous

Question: Which “total weight gained in the region from 5 to 95% RH” value ([4]; 5 to 95% RH) does the source give for CC[C@@]1(O)C(=O)OCc2c1cc1n(c2=O)Cc2cc3c([N+](=O)[O-])cccc3nc2-1 [Form A, 9-nitrocamptothecin] here?
Answer: about 0.03%

Question: What about the Weight % chg ([4]; desorption, RH 4.83 %, 25.03 deg C, elapsed 157.3 min) of the same compound?
Answer: 0.0275%

Question: What about the Weight % chg ([4]; desorption, RH 15.00 %, 25.03 deg C, elapsed 150.3 min) of the same compound?
Answer: 0.0307%

Question: And the Weight % chg ([4]; desorption, RH 24.95 %, 25.02 deg C, elapsed 143.3 min)?
Answer: 0.0324%

Question: What about the Weight % chg ([4]; desorption, RH 34.97 %, 25.02 deg C, elapsed 135.8 min) of the same compound?
Answer: 0.0348%

Question: What about the Weight % chg ([4]; desorption, RH 45.05 %, 25.02 deg C, elapsed 127.8 min) of the same compound?
Answer: 0.0372%

Question: What about the Weight % chg ([4]; desorption, RH 54.99 %, 25.02 deg C, elapsed 119.8 min) of the same compound?
Answer: 0.0381%

Question: What about the Weight % chg ([4]; desorption, RH 65.02 %, 25.02 deg C, elapsed 111.8 min) of the same compound?
Answer: 0.0405%

Question: What about the Weight % chg ([4]; desorption, RH 75.18 %, 25.03 deg C, elapsed 103.8 min) of the same compound?
Answer: 0.0429%

Question: And the Weight % chg ([4]; desorption, RH 84.95 %, 25.03 deg C, elapsed 94.8 min)?
Answer: 0.0429%

Question: What about the “water gained upon equilibration to 5% RH” value ([4]; equilibration to 5% RH) of the same compound?
Answer: 0.01%

Question: What about the hygroscopicity [4] of the same compound?
Answer: not hygroscopic

Question: What about the Weight % chg ([4]; sorption, RH 5.16 %, 25.02 deg C, elapsed 11.1 min) of the same compound?
Answer: 0.0131%

Question: What about the Weight % chg ([4]; sorption, RH 15.27 %, 25.02 deg C, elapsed 19.6 min) of the same compound?
Answer: 0.0149%

Question: And the Weight % chg ([4]; sorption, RH 24.98 %, 25.03 deg C, elapsed 27.2 min)?
Answer: 0.0169%

Question: What about the Weight % chg ([4]; sorption, RH 35.07 %, 25.03 deg C, elapsed 34.7 min) of the same compound?
Answer: 0.0210%

Question: And the Weight % chg ([4]; sorption, RH 45.07 %, 25.03 deg C, elapsed 42.2 min)?
Answer: 0.0242%

Question: And the Weight % chg ([4]; sorption, RH 55.00 %, 25.03 deg C, elapsed 50.2 min)?
Answer: 0.0283%

Question: What about the Weight % chg ([4]; sorption, RH 64.96 %, 25.03 deg C, elapsed 59.2 min) of the same compound?
Answer: 0.0315%

Question: And the Weight % chg ([4]; sorption, RH 74.75 %, 25.03 deg C, elapsed 68.3 min)?
Answer: 0.0347%

Question: What about the Weight % chg ([4]; sorption, RH 84.64 %, 25.03 deg C, elapsed 77.3 min) of the same compound?
Answer: 0.0387%

Question: And the Weight % chg ([4]; sorption, RH 94.90 %, 25.03 deg C, elapsed 86.3 min)?
Answer: 0.0421%

Question: And the Weight % chg ([4]; start, RH 14.41 %, 24.99 deg C, elapsed 0.0 min)?
Answer: 0.0000%

Question: For CC[C@@]1(O)C(=O)OCc2c1cc1n(c2=O)Cc2cc3c([N+](=O)[O-])cccc3nc2-1 [Form B, 9-nitrocamptothecin], which hygroscopicity [4] is on record?
Answer: relatively hygroscopic

Question: What about the Weight % chg ([4]; start, RH 9.87 %, 25.03 deg C, elapsed 0.0 min) of the same compound?
Answer: 0.0000%

Question: What about the “stability of crystalline form on storage (XRPD pattern unchanged)” value [5] of the same compound?
Answer: relatively stable

Question: For CC[C@@]1(O)C(=O)OCc2c1cc1n(c2=O)Cc2cc3c(N)cccc3nc2-1 [Form 9AC, 9-Amino-20(S)-Camptothecin], which anticancer activity [1] is on record?
Answer: high anticancer activity
